Experimental findings from patent publication US12472185B2, “Methods for killing antibiotic tolerant bacteria” (THE PENN STATE RESEARCH FOUNDATION, priority 2020, dated 2025) are described below.

Structures are written as SMILES.

In assay [1] the test system is natural E. coli persister cells. The assay can be described thus: Survival of naturally-occurring persister cells (ampicillin only). Type of assay: cell-based, Escherichia coli. Conditions: NPIMA, compared with rifampicin-generated persisters. The method, then: FIG. 9. NPIMA kills naturally-occurring E. coli persister cells. Survival of E. coli with 5-iodoindole and solvent negative control (DMSO) also shown. Asterisk (*) indicates no viable cells were detected. The persister cells were harvested at stationary-phase of E. coli (turbidity of 6.0 at 600 nm) and non-persister cells were removed by treatment.
(§1) E. coli persister cells were prepared following our previous method (Kim, Yamasaki, et al., 2018; Kwan, Valenta, Benedik, & Wood, 2013). Exponentially-growing cells (turbidity of 0.8 at 600 nm) were treated with rifampicin (100 μg/ml for 30 min) to stop transcription, washed, and any remaining nonpersister cells were lysed by ampicillin in LB (100 μg/ml for 3 hr). Cells were harvested by centrifugation (17,000 g for 1 min) and washed with 1× phosphate-buffered saline buffer (PBS, 8 g NaCl, 0.2 g KCl, 1.15 g Na2HPO4, and 0.2 g KH2PO4 per 1,000 ml) twice to remove all possible carbon sources, then resuspended with 1×PBS. […]
(§2) For bacterial viability, cells were washed twice with 0.85% NaCl, resuspended in 1×PBS, and cell counts were determined via the drop assay (Donegan, Matyac, Seidler, & Porteous, 1991). […] Cell viability was determined via a cell counting kit (CCK-8 Kit, ab228554; Abcam), and cytotoxicity was determined via the lactate dehydrogenase (LDH) assay (LDH Assay Kit, MK401; Takara).

For the next assay, the system named is S. aureus. Nature of the assay: LIVE/DEAD staining. Type of assay: cell-based, Staphylococcus aureus. Conditions: 100 μM, 1 hr. How it is done:
(§3) FIG. 4. NPIMA lyses Escherichia coli, Pseudomonas aeruginosa, and Staphylococcus aureus. LIVE/DEAD staining of (a) E. coli BW25113 after 0.75 hr, (b) P. aeruginosa PA14 after 1 hr, and (c) S. aureus after 1 hr treatment with NPIMA at 100 μM. […] White arrows indicate lysed cells. Representative images are shown. Scale bar=[…]. NPIMA, 5-nitro-3-phenyl-1H-indol-2-ylmethylamine hydrochloride.
(§4) Cell viability after treating with NPIMA was determined using the using the LIVE/DEAD BacLight Bacterial Viability Kit (catalog number, L7012; Molecular Probes, Inc., Eugene, OR). The fluorescence signal was analyzed via a Zeiss Axioscope.A1 using excitation at 485 nm and emission at 530 nm for green fluorescence and using excitation at 485 nm and emission at 630 nm for red fluorescence.

A further assay concerns E. coli BW25113. The assay can be described thus: LIVE/DEAD staining. Type of assay: cell-based, Escherichia coli. Conditions: 100 μM, exponentially-growing cells. How it is done: as §3, §4
Assay [2] deals with P. aeruginosa PA14 persister cells. The assay can be described thus: Survival of persister cells (CCCP/ciprofloxacin generated). Type of assay: cell-based, Pseudomonas aeruginosa. Conditions: 100 μM. The method, then:
FIG. 3. NPIMA kills Escherichia coli, Pseudomonas aeruginosa, persister cells. Survival of (a) E. coli BW25113 and (b) P. aeruginosa PA14 after treatment with NPIMA (100 μM), 5-iodoindole (5-II, 100 μM), and DMSO for 6 hr. Asterisk indicates no viable cells detected. DMSO, dimethyl sulfoxide; NPIMA, 5-nitro-3-phenyl-1H-indol-2-yl-methylamine hydrochloride.
as §1, §2

Assay [3] has as its system P. aeruginosa + S. aureus. Nature of the assay: In vitro Lubbock chronic wound pathogenic biofilm model. Type of assay: cell-based, Pseudomonas aeruginosa and Staphylococcus aureus. To be noted: 0.5 mM, 6 hr. The method, then:
FIG. 10. NPIMA kills S. aureus and P. aeruginosa in a wound model. Survival of total cells (P. aeruginosa+S. aureus) in the wound model after treatment with NPIMA for 6 h. The left bar is the solvent (DMSO) negative control.
Overnight cultures of S. aureus and P. aeruginosa PA14 were diluted in wound-like media (45% Bolton broth, 50% bovine plasma, and 5% laked horse blood; Sun, Dowd, Smith, Rhoads, & Wolcott, 2008) to a turbidity of 0.5 at 600 nm in 1 ml. Each culture (1%) was used to inoculate fresh 5 ml of wound-like media. The combined culture (200 μl/well) was placed into 96-well plates and incubated at 37° C. with shaking for 24 hr. The non-gel liquid was removed, then the gel was washed once with PBS. NPIMA (0.1 and 0.5 mM) and DMSO were then added (200 μl/well) to the plates, which were incubated for another 6 hr with shaking. By triturating, the gel with cells was removed and added to 0.8 ml of PBS, and the cell viability was measured by spreading 100 μl of diluted culture on LB plates.

Assay [4] relates to E. coli BW25113 exponential cells. Nature of the assay: Survival of exponentially-growing cells (drop assay). Type of assay: cell-based, Escherichia coli. The method, then:
FIG. 2. NPIMA eradicates Escherichia coli, Pseudomonas aeruginosa, and Staphylococcus aureus exponential cells. Survival after 6 hr for (a) E. coli BW25113 with NPIMA and 5-iodoindole at 100 μM, (b) P. aeruginosa PA14 with NPIMA and 5-iodoindole at 100 μM, and (c) S. aureus with NPIMA and 5-iodoindole at 200 μM. Asterisk indicates no viable cells detected. NPIMA, 5-nitro-3-phenyl-1H-indol-2-yl-methylamine hydrochloride.
FIG. 8. NPIMA structure function relationships. Exponential cells of Escherichia coli BW25113 were treated with (a) 2-(aminomethyl) indole, and (b) 2-methyl-5-nitro-3-phenyl-1H-indole for 6 hr. NPIMA, 5-nitro-3-phenyl-1Hindol-2-yl-methylamine hydrochloride.
(§5) For bacterial viability, cells were washed twice with 0.85% NaCl, resuspended in 1×PBS, and cell counts were determined via the drop assay (Donegan, Matyac, Seidler, & Porteous, 1991). For human cell viability, pre-cultured human cancer HT-29 cells were dispensed in 98 μl in 96-well plates with approximately 5,000 cells/well. NPIMA was added (2 μl) to produce concentrations of 5, 10, 100, and 200 μM. For controls, Triton X-100 (positive control) and DMSO (negative solvent control), were used, and the medium was used for background. Plates were incubated in a humidified incubator (37° C., 5% CO2) for 24 hr. Cell viability was determined via a cell counting kit (CCK-8 Kit, ab228554; Abcam), and cytotoxicity was determined via the lactate dehydrogenase (LDH) assay (LDH Assay Kit, MK401; Takara).

Assay [5] deals with S. aureus exponentially-growing cells. The assay can be described thus: Killing at one MIC in PBS, NPIMA compared with cisplatin. Type of assay: cell-based, Staphylococcus aureus. Conditions: 3 hr.
Excerpt: FIG. 7. NPIMA compared width cisplatin for killing Pseudomonas aeruginosa, Escherichia coli, and Staphylococcus aureus. Survival of exponentially-growing cells of P. aeruginosa PA14 (a), E. coli (b), and S. aureus (c) treated with one MIC of NPIMA (♦) and cisplatin (●) for 3 hr in PBS. DMSO (▴) and NaClO4 (*) were used as a negative controls. MIC, minimum inhibitory concentration; NPIMA, 5-nitro-3-phenyl-1H-indol-2-yl-methylamine hydrochloride.
as §5

On to `Cl.NCc1[nH]c2ccc([N+](=O)[O-])cc2c1-c1ccccc1` [NPIMA, [(5-nitro-3-phenyl-1H-indol-2-yl)methyl]amine hydrochloride], for which, in assay [1], the “killing of natural persisters (ampicillin treatment only)” value was “killed in an identical manner”. Also, the “cells killed (LIVE/DEAD)” value in the assay with S. aureus was determined as 27%. The “cell lysis seen by LIVE/DEAD staining (extracellular DNA)” value with E. coli BW25113 is listed as “lysed”. Also, the “time to eradicate P. aeruginosa persister cells” value in assay [2] worked out at 3 h. The “reduction of total viable number of cells compared to DMSO” value in assay [3] is recorded as 10 fold. For the same molecule, in assay [4] (100 μM (1 MIC)), the “time to eradicate exponentially-growing E. coli” value is at most 3 h. Also, in assay [4] (100 μM, 6 hr), the “killing of exponential E. coli cells” value is recorded as “eradicated”. The “effectiveness relative to cisplatin” value in assay [5] is given as “less effective than cisplatin”.
